Data on 15 compounds can be found in US8470805B2, “Processes for preparing piperazinium salts of KMUP and use thereof” (Kaohsiung Medical University, priority 2009, dated 2013).

Broadly, the IC50 is the midpoint of a concentration-inhibition curve.

Test [1] deals with STZ-induced diabetic rats. The experiment in a line: Change of insulin and fasting blood glucose after administration, STZ-induced diabetic rats. The test is classed as in vivo. As to conditions: 4 mg/kg. The protocol:
Nateglinide, repaglinide or the placebo is administered on day 1 before one hour of the breakfast, and the KMUP-1/KMUP-1-Nateglinide or KMUP-1-Repaglinide are orally administered at 1, 2, 3, 4, 5 and 6 hrs respectively. The amount of the serum glucose (mg/dl), the amount of the serum insulin (mg/dl), the body weight (g) and the change of the body weight are measured.

Test [2] concerns U46619-induced platelet aggregation. The experiment in a line: Antiplatelet aggregation activity (U46619-induced, turbidity, Lumi-aggregometer). The format is cell-based. Particulars: 20 μM, rabbit platelets, n=8. As for the experimental part:
4. […] After centrifuging at […] for 10 mins, the supernatant is platelet-rich plasma (PRP). The platelet suspension is obtained from EDTA-anticoagulated PRP, and the platelet granules are finally suspended in the Tyrode's solution. […] The turbidity is measured at 37° C. by Lumi-aggregometer connected with two dual channel recorders as the aggregation.

For test [3], the system named is H1N1 virus. The test is classed as cell-based. Particulars: MDCK culture infected with H1N1 virus; for IC50: n=6.
In test [4] the test system is RAW 264.7 cells. The experiment in a line: Inhibition of RANKL-induced osteoclast differentiation (TRAP staining). The format is cell-based. Particulars: 5 μM, 5 days; for TRAP-Positive Cells: RANKL 10 μg/ml, n=5.
The subject of test [5] is monocrotaline (MCT)-treated rats. The experiment in a line: Pulmonary artery blood pressure in monocrotaline (MCT)-treated rats. The test is classed as in vivo, male Wistar rats. As for the experimental part: 5. the monocrotaline (MCT)-treated rats show the […] pulmonary aterial hypertension
Pulmonary aterial hypertension in MCT-treated rats is caused on day 21 after the intraperitoneal injection. Orally administered KMUP-1 HCl salt (2.5 mg/kg), simvastatin (2.5 mg/kg), KMUP-1-nicotinic acid complex (2.5 mg/kg), KMUP-1-Citric acid complex (2.5 mg/kg), KMUP-1-Simvastatinic acid complex (2.5 mg/kg) and KMUP-1-γ-Polyglutamic acid complex (2.5 mg/kg), or the inhalated KMUP-1-PGI2 (0.1 mM) every day may inhibit the male Wistar rats treated with MCT, which show the effect of decreasing the pulmonary artery blood pressure (PABP).

The subject of test [6] is C57BL/6J mice. The experiment in a line: The lipid-lowering effect in C57BL/6J mice (high-fat diet). The test is classed as in vivo. Particulars: HFD, after 21 days. As for the experimental part:
(§1) 8-week C57BL/6J mice are divided into standard diet (STD) group and the high-fat diet (HFD) group. In the HFD group, the KMUP-1 HCl salt (1, 2.5 and 5 mg/kg), the simvastatin (5 mg/kg), the KMUP-1-Nicotinic acid complex (1 and 5 mg/kg), the KMUP-1-Simvastatinic acid complex (1 and 5 mg/kg), KMUP-1-Gemfibrozil complex (2.5 mg/kg), KMUP-1-Fibric acid complex (2.5 mg/kg), KMUP-1-γ-polyglutamic acid complex (2.5 mg/kg) and KMUP-1-Citric acid complex (2.5 mg/kg) are administered orally. After 21 days, the amounts (mg/dl) of the triglyceride (TG), the total cholesterol (tot.-C), the high density lipoprotein cholesterol (HDL-C), the low density lipoprotein cholesterol (LDL-C) and the serum glucose of six mice for each group are measured as shown in Tables 2 and 3.

Test [7] concerns TGF-β. The experiment in a line: Bleomycin-induced lung fibrosis in mice, TGF-β expression by EIA. The format is in vivo. As to conditions: bleomycin 60 mg/kg. As for the experimental part:
6. KMUP-1 salts inhibit the lung fibrosis in mice induced by bleomycin (BM) mediated via transforming growth factor beta (TGF-β) expression in lung The increased amount of the synthetic collagen and the generation of the macrophage in alveolus may facilitate the formulation of TGF-β, and the expression of TGF-β is looked as a biomarker of the lung fibrosis. […] The state of the TGF-β expression in the irrigation solution is measured by the enzyme immunoassay (EIA).

Test [8] relates to C57BL/6J mice. The experiment in a line: The amount of the serum glucose and insulin in C57BL/6J mice (high-fat diet). As to conditions: 1 mg/kg orally, HFD, after 21 days. The test is classed as in vivo. The arrangement: The amount of serum insulin: unit not given here. As for the experimental part: as §1
Test [9] relates to STZ-induced diabetic rats. The experiment in a line: Serum glucose and body weight in streptozosin (STZ)-induced diabetic rats. As to conditions: 5 mg/kg orally, after 21 days. The format is in vivo. The protocol:
2. The effect of KMUP-1 on decreasing the amount of the serum glucose in streptozosin (STZ)-induced diabetic rats
60 mg/kg of streptozosin is injected intravenously for inducing the STZ-induced rats, and the KMUP-1 HCl salt (0.5, 1.5, 2.5 and 5 mg/kg) and KMUP-1-Simvastatinic acid (5 mg/kg) are administered orally. After 21 days, the amount of the serum glucose (mg/dl), the amount of the serum insulin (mg/dl), the body weight (g) and the change of the body weight are measured.

Regarding `CC(C)[C@H]1CC[C@H](C(=O)N[C@H](Cc2ccccc2)C(=O)O)CC1` [Nat, Nateglinide, reference compound], the “The change of the fasting blood glucose after administration” value (shortened to “The change of the fasting blood glucose”) in [1] (1 hr) was 4.7 ± 0.6 mg/dL; in test [1] (2 hr), 0.3 ± 0.2 mg/dL; in [1] (6 hr), -0.2 ± 0.3 mg/dL. The “The change of the insulin after administration” value (“The change of the insulin” for short) in [1] (1 hr) worked out at 42.5 ± 4.2 U/mL; in test [1] (2 hr), 49.3 ± 3.4 U/mL; in [1] (3 hr), 24.4 ± 4.6 U/mL; in [1] (4 hr), 17.8 ± 2.8 U/mL; in test [1] (6 hr), 4.4 ± 0.6 U/mL.

Regarding KMUP-1-Repaglinide Complex, the figures for the “The change of the fasting blood glucose” value in test [1] (1 hr), in [1] (2 hr) and in [1] (6 hr) were 5.7 ± 0.8 mg/dL, 0.5 ± 0.2 mg/dL and -0.3 ± 0.1 mg/dL, respectively. Also, the “The change of the insulin” value in test [1] (1 hr) amounted to 39.5 ± 3.8 U/mL; in test [1] (2 hr), 47.3 ± 2.2 U/mL; in test [1] (3 hr), 27.4 ± 2.8 U/mL; in test [1] (4 hr) it was 14.8 ± 3.7 U/mL; in test [1] (6 hr), 2.8 ± 0.5 U/mL.

For the compound `COc1ccc2c(c1)c(CC(=O)O)c(C)n2C(=O)c1ccc(Cl)cc1.Cn1c(=O)c2c(ncn2CCN2CCN(c3ccccc3Cl)CC2)n(C)c1=O` [KMUP-1-Indomethacin, KMUP-1-Indomethacin complex], the “The ratio of the antiplatelet aggregation” value in test [2] came to 92 ± 5.8 %.

With `CCOc1cc(CC(=O)N[C@@H](CC(C)C)c2ccccc2N2CCCCC2)ccc1C(=O)O` [Rep, Repaglinide, reference compound], the “The change of the fasting blood glucose” value in [1] (1 hr) is 3.2 ± 0.8 mg/dL; in test [1] (2 hr), 0.6 ± 0.1 mg/dL; in test [1] (6 hr), -0.1 ± 0.4 mg/dL. Besides, the “The change of the insulin” value in test [1] (1 hr) worked out at 47.5 ± 3.7 U/mL; in test [1] (2 hr), 49.3 ± 3.4 U/mL; in test [1] (3 hr) it was 24.4 ± 4.6 U/mL; in test [1] (4 hr), 19.8 ± 3.6 U/mL; in [1] (6 hr), 4.8 ± 0.4 U/mL.

On to `CC[C@H](C)C(=O)O[C@H]1C[C@H](O)C=C2C=C[C@H](C)[C@H](CC[C@@H](O)C[C@@H](O)CC(=O)O)[C@H]21.Cn1c(=O)c2c(ncn2CCN2CCN(c3ccccc3Cl)CC2)n(C)c1=O` [KMUP-1-Pravastatinic acid, KMUP-1-Pravastatinic acid complex], for which the IC50 in [3] is 2.1 µg/mL.

Take `Cn1c(=O)c2c(ncn2CCN2CCN(c3ccccc3Cl)CC2)n(C)c1=O` [KMUP-1, 7-[2-[4-(2-chlorobenzene)piperazinyl]ethyl]-1,3-dimethylxanthine]: the “TRAP-positive cell count caused by RANKL (in words)” value in test [4] is reported as “suppressed the TRAP-positive cell count”.

For the compound KMUP-1-PGI2 complex, the PABP in [5] (0.1 mM (inhalation)) was 10 ± 0.2 mmHg.

As to `Cc1ccc(C)c(OCCCC(C)(C)C(=O)O)c1.Cn1c(=O)c2c(ncn2CCN2CCN(c3ccccc3Cl)CC2)n(C)c1=O` [KMUP-1-Gemfibrozil, KMUP-1-gemfibrozil complex], in test [6] (2.5 mg/kg orally), the HDL-C stood at 98.7 ± 1.8 mg/dL, the LDL-C came out at 18.2 ± 1.8 mg/dL, the TG was found to be 79.2 ± 4.6 mg/dL and the tot.-C came out at 130.7 ± 1.7 mg/dL.

In turn, `CC[C@H](C)C(=O)O[C@H]1C[C@@H](C)C=C2C=C[C@H](C)[C@H](CC[C@@H](O)C[C@@H](O)CC(=O)O)[C@H]21.Cn1c(=O)c2c(ncn2CCN2CCN(c3ccccc3Cl)CC2)n(C)c1=O` [KMUP-1-Lovastatinic acid, KMUP-1-Lovastatinic acid complex] had a half-maximal inhibitory concentration (IC50) in [3] of 1.9 µg/mL. Further, the “TRAP-Positive Cells” value in [4] is 73 ± 6.

In [6] (5 mg/kg orally), `CCC(C)(C)C(=O)O[C@H]1C[C@@H](C)C=C2C=C[C@H](C)[C@H](CC[C@@H]3C[C@@H](O)CC(=O)O3)[C@H]21` [Simvastatin, simvastatin, reference compound] showed an HDL-C of 103.18 ± 2.5 mg/dL, an LDL-C of 15.3 ± 1.3 mg/dL, a TG of 82.67 ± 6.3 mg/dL and a tot.-C of 133.67 ± 4.3 mg/dL. Moreover, the “Changing % of the lung TGF-β” value in [7] (5 mg/kg orally) turned out to be 40 ± 4.3 %. In addition, the “TRAP-Positive Cells” value in [4] amounted to 85 ± 7.

In test [6] (2.5 mg/kg orally), “KMUP-1-γ-polyglutamate complex [KMUP-1-γ-polyglutamic acid]” yielded an HDL-C of 97.3 ± 1.6 mg/dL, an LDL-C of 16.5 ± 0.9 mg/dL, a TG of 78.2 ± 3.6 mg/dL and a tot.-C of 129.4 ± 1.4 mg/dL. Besides, the PABP in test [5] (2.5 mg/kg/day p.o.) was 11 ± 0.6 mmHg. The “Changing % of the lung TGF-β” value in [7] (2.5 mg/kg orally) is listed as 42 ± 1.6 %.

For `CC(C)[C@H]1CC[C@H](C(=O)N[C@H](Cc2ccccc2)C(=O)O)CC1.Cn1c(=O)c2c(ncn2CCN2CCN(c3ccccc3Cl)CC2)n(C)c1=O` [KMUP-1-Nat, KMUP-1-Nateglinide Complex], the “The change of the fasting blood glucose” value in [1] (1 hr) is 4.67 ± 0.7 mg/dL; in test [1] (2 hr), 0.8 ± 0.4 mg/dL; in [1] (6 hr), -0.2 ± 0.3 mg/dL. Also, the “The change of the insulin” value in test [1] (1 hr) is 38 ± 2.7 U/mL; in test [1] (2 hr), 51.3 ± 4.3 U/mL; in test [1] (3 hr) it was 31.8 ± 3.7 U/mL; in test [1] (4 hr), 21.8 ± 5.3 U/mL; in [1] (6 hr), 3.4 ± 0.6 U/mL.

For `CC(C)c1c(C(=O)Nc2ccccc2)c(-c2ccccc2)c(-c2ccc(F)cc2)n1CC[C@@H](O)C[C@@H](O)CC(=O)O.Cn1c(=O)c2c(ncn2CCN2CCN(c3ccccc3Cl)CC2)n(C)c1=O` [KMUP-1-Atorvastatinic acid, KMUP-1-Atorvastatinic acid complex], the “TRAP-Positive Cells” value in test [4] turned out to be 78 ± 3.

In [6] (5 mg/kg orally), `CCC(C)(C)C(=O)O[C@H]1C[C@@H](C)C=C2C=C[C@H](C)[C@H](CC[C@@H](O)C[C@@H](O)CC(=O)O)[C@H]21.Cn1c(=O)c2c(ncn2CCN2CCN(c3ccccc3Cl)CC2)n(C)c1=O` [KMUP-1-Simvastatinic acid, KMUP-1-Simvastatinic acid complex] returned an HDL-C of 108.4 ± 1.3 mg/dL, an LDL-C of 17.3 ± 1.4 mg/dL, a TG of 81.2 ± 4.4 mg/dL and a tot.-C of 129.7 ± 1.4 mg/dL. Also, in test [8], the “The amount of serum glucose” value stood at 117.3 ± 3.8 mg/dL and the “The amount of serum insulin” value turned out to be 0.85 ± 0.17. For the same compound, the “The amount of the serum glucose” value in test [9] is 194.2 ± 16.1 mg/dL. This compound had a PABP in test [5] (2.5 mg/kg/day p.o.) of 12 ± 1.3 mmHg. Besides, the “Changing % of the lung TGF-β” value in test [7] (2.5 mg/kg orally) is listed as 45 ± 4.5 %. The “growth of the virus (in words)” value in test [3] (in glucose solution) is given as “can inhibit the growth of the virus”. The half-inhibitory concentration (IC50) in [3] came out at 1.8 µg/mL. The “TRAP-Positive Cells” value in test [4] is on record as 72 ± 5.

Regarding `CC(C)(Oc1ccc(C(=O)c2ccc(Cl)cc2)cc1)C(=O)O.Cn1c(=O)c2c(ncn2CCN2CCN(c3ccccc3Cl)CC2)n(C)c1=O` [KMUP-1-Fibric acid, KMUP-1-fibric acid complex], in test [6] (2.5 mg/kg orally), the HDL-C stood at 98.4 ± 1.3 mg/dL, the LDL-C turned out to be 18.4 ± 2.2 mg/dL, the TG was found to be 80.2 ± 3.2 mg/dL and the tot.-C was found to be 132.7 ± 1.3 mg/dL.
